Laboratory results as given in PubChem BioAssay (NCI).
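A five-concentration, 48-hour dose response in 96-well plates underlies each endpoint, interpolated linearly between surrounding concentrations. TGI: concentration producing complete growth inhibition.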

Assays:
Assay in all cases: DTP human tumour cell line panel, 48 h
HCC-2998 colon = tested on: HCC-2998 colon
COLO 205 colon = tested on: COLO 205 colon
SK-MEL-2 melanoma = tested on: SK-MEL-2 melanoma
NCI-H460 lung = tested on: NCI-H460 lung
UACC-257 melanoma = tested on: UACC-257 melanoma
CCRF-CEM leukemia = tested on: CCRF-CEM leukemia
MALME-3M melanoma = tested on: MALME-3M melanoma
RXF 393 renal = tested on: RXF 393 renal
MOLT-4 leukemia = tested on: MOLT-4 leukemia
KM12 colon = tested on: KM12 colon
SF-295 CNS = tested on: SF-295 CNS
U251 CNS = tested on: U251 CNS
HOP-62 NSCLC = tested on: HOP-62 NSCLC
OVCAR-8 ovarian = tested on: OVCAR-8 ovarian
M14 melanoma = tested on: M14 melanoma
SR leukemia = tested on: SR leukemia
HCT-116 colon = tested on: HCT-116 colon
SK-OV-3 ovarian = tested on: SK-OV-3 ovarian
NCI-H226 lung = tested on: NCI-H226 lung
SNB-19 CNS = tested on: SNB-19 CNS
UO-31 renal = tested on: UO-31 renal
SF-539 CNS = tested on: SF-539 CNS
A549 NSCLC = tested on: A549 NSCLC
HT29 colon = tested on: HT29 colon
NCI-H23 lung = tested on: NCI-H23 lung
NCI-H522 lung = tested on: NCI-H522 lung
DMS 114 small cell lung = tested on: DMS 114 small cell lung
OVCAR-3 ovarian = tested on: OVCAR-3 ovarian
HL-60(TB) leukemia = tested on: HL-60(TB) leukemia
HOP-18 NSCLC = tested on: HOP-18 NSCLC
XF 498 CNS = tested on: XF 498 CNS
TK-10 renal = tested on: TK-10 renal
SF-268 CNS = tested on: SF-268 CNS
SN12C renal = tested on: SN12C renal
KM20L2 colon = tested on: KM20L2 colon
SK-MEL-28 melanoma = tested on: SK-MEL-28 melanoma
RPMI-8226 leukemia = tested on: RPMI-8226 leukemia
HOP-92 NSCLC = tested on: HOP-92 NSCLC
K-562 leukemia = tested on: K-562 leukemia
SNB-75 CNS = tested on: SNB-75 CNS
EKVX NSCLC = tested on: EKVX NSCLC
SNB-78 CNS = tested on: SNB-78 CNS
ACHN renal = tested on: ACHN renal
DLD-1 colon = tested on: DLD-1 colon
IGROV1 ovarian = tested on: IGROV1 ovarian
UACC-62 melanoma = tested on: UACC-62 melanoma
DMS 273 small cell lung = tested on: DMS 273 small cell lung
LXFL 529 NSCLC = tested on: LXFL 529 NSCLC
786-0 renal = tested on: 786-0 renal
LOX IMVI melanoma = tested on: LOX IMVI melanoma
SW-620 colon = tested on: SW-620 colon
M19-MEL melanoma = tested on: M19-MEL melanoma
OVCAR-4 ovarian = tested on: OVCAR-4 ovarian
SK-MEL-5 melanoma = tested on: SK-MEL-5 melanoma
OVCAR-5 ovarian = tested on: OVCAR-5 ovarian
HCT-15 colon = tested on: HCT-15 colon
CAKI-1 renal = tested on: CAKI-1 renal

Compound: Cn1cc(NC(=O)[C@H]2CCC(N)=N2)cc1C(=O)NCCC(=N)N
- TGI (HCC-2998 colon): > 100 µM
- TGI (COLO 205 colon): > 100 µM
- TGI (SK-MEL-2 melanoma): > 100 µM
- TGI (NCI-H460 lung): > 100 µM
- TGI (UACC-257 melanoma): > 100 µM
- TGI (CCRF-CEM leukemia): > 100 µM
- TGI (MALME-3M melanoma): > 100 µM
- TGI (RXF 393 renal): > 100 µM
- TGI (MOLT-4 leukemia): > 100 µM
- TGI (KM12 colon): > 100 µM
- TGI (SF-295 CNS): > 100 µM
- TGI (U251 CNS): > 100 µM
- TGI (HOP-62 NSCLC): > 100 µM
- TGI (OVCAR-8 ovarian): > 100 µM
- TGI (M14 melanoma): > 100 µM
- TGI (SR leukemia): > 100 µM
- TGI (HCT-116 colon): > 100 µM
- TGI (SK-OV-3 ovarian): > 100 µM
- TGI (NCI-H226 lung): > 100 µM
- TGI (SNB-19 CNS): > 100 µM
- TGI (UO-31 renal): > 100 µM
- TGI (SF-539 CNS): > 100 µM
- TGI (A549 NSCLC): > 100 µM
- TGI (HT29 colon): > 100 µM
- TGI (NCI-H23 lung): > 100 µM
- TGI (NCI-H522 lung): > 100 µM
- TGI (DMS 114 small cell lung): > 100 µM
- TGI (OVCAR-3 ovarian): > 100 µM
- TGI (HL-60(TB) leukemia): > 100 µM
- TGI (HOP-18 NSCLC): > 100 µM
- TGI (XF 498 CNS): > 100 µM
- TGI (TK-10 renal): > 100 µM
- TGI (SF-268 CNS): > 100 µM
- TGI (SN12C renal): > 100 µM
- TGI (KM20L2 colon): > 100 µM
- TGI (SK-MEL-28 melanoma): > 100 µM
- TGI (RPMI-8226 leukemia): > 100 µM
- TGI (HOP-92 NSCLC): > 100 µM
- TGI (K-562 leukemia): > 100 µM
- TGI (SNB-75 CNS): > 100 µM
- TGI (EKVX NSCLC): > 100 µM
- TGI (SNB-78 CNS): > 100 µM
- TGI (ACHN renal): > 100 µM
- TGI (DLD-1 colon): > 100 µM
- TGI (IGROV1 ovarian): > 100 µM
- TGI (UACC-62 melanoma): > 100 µM
- TGI (DMS 273 small cell lung): > 100 µM
- TGI (LXFL 529 NSCLC): > 100 µM
- TGI (786-0 renal): > 100 µM
- TGI (LOX IMVI melanoma): > 100 µM
- TGI (SW-620 colon): > 100 µM

Compound: FC(F)(F)C1(Cl)C(Cl)(c2ccccc2)C1(Cl)c1ccccc1 (stereo not drawn)
- TGI (HCC-2998 colon): 31.1 µM
- TGI (COLO 205 colon): 33.4 µM
- TGI (SK-MEL-2 melanoma): 29.1 µM
- TGI (NCI-H460 lung): 30.5 µM
- TGI (UACC-257 melanoma): 28.1 µM
- TGI (CCRF-CEM leukemia): 55 µM
- TGI (RXF 393 renal): 27.7 µM
- TGI (MOLT-4 leukemia): 35.4 µM
- TGI (KM12 colon): 29 µM
- TGI (SF-295 CNS): 29.4 µM
- TGI (U251 CNS): 28.3 µM
- TGI (HOP-62 NSCLC): 30 µM
- TGI (OVCAR-8 ovarian): 32.2 µM
- TGI (M14 melanoma): 30.2 µM
- TGI (SR leukemia): 25.8 µM
- TGI (M19-MEL melanoma): 29 µM
- TGI (HCT-116 colon): 24.8 µM
- TGI (OVCAR-4 ovarian): 27.3 µM
- TGI (SK-OV-3 ovarian): 54.7 µM
- TGI (NCI-H226 lung): 27.4 µM
- TGI (SNB-19 CNS): 32.5 µM
- TGI (UO-31 renal): 28.1 µM
- TGI (SF-539 CNS): 30.4 µM
- TGI (A549 NSCLC): 28 µM
- TGI (HT29 colon): 28.2 µM
- TGI (NCI-H23 lung): 27.5 µM
- TGI (SK-MEL-5 melanoma): 26.9 µM
- TGI (DMS 114 small cell lung): 29.2 µM
- TGI (OVCAR-3 ovarian): 28.1 µM
- TGI (HL-60(TB) leukemia): > 100 µM
- TGI (OVCAR-5 ovarian): 30 µM
- TGI (HOP-18 NSCLC): 23.1 µM
- TGI (XF 498 CNS): 29.3 µM
- TGI (TK-10 renal): 32.8 µM
- TGI (SF-268 CNS): 31.7 µM
- TGI (SN12C renal): 28.6 µM
- TGI (KM20L2 colon): 26.9 µM
- TGI (SK-MEL-28 melanoma): 28.2 µM
- TGI (HCT-15 colon): 26.8 µM
- TGI (RPMI-8226 leukemia): > 100 µM
- TGI (HOP-92 NSCLC): 24.8 µM
- TGI (K-562 leukemia): > 100 µM
- TGI (SNB-75 CNS): 29.9 µM
- TGI (EKVX NSCLC): 30.1 µM
- TGI (SNB-78 CNS): 33.2 µM
- TGI (ACHN renal): 29.5 µM
- TGI (DLD-1 colon): 29.1 µM
- TGI (IGROV1 ovarian): 26 µM
- TGI (UACC-62 melanoma): 29.7 µM
- TGI (DMS 273 small cell lung): 28.2 µM
- TGI (LXFL 529 NSCLC): 29.9 µM
- TGI (786-0 renal): 29.5 µM
- TGI (LOX IMVI melanoma): 26.8 µM
- TGI (CAKI-1 renal): 25.6 µM
- TGI (SW-620 colon): 29.1 µM

Compound: CCC(=C(C#N)C#N)c1cc(OC)c(OC)c(OC)c1
- TGI (HCC-2998 colon): > 100 µM
- TGI (COLO 205 colon): > 100 µM
- TGI (SK-MEL-2 melanoma): > 100 µM
- TGI (NCI-H460 lung): > 100 µM
- TGI (CCRF-CEM leukemia): > 100 µM
- TGI (MALME-3M melanoma): > 100 µM
- TGI (RXF 393 renal): > 100 µM
- TGI (MOLT-4 leukemia): > 100 µM
- TGI (KM12 colon): > 100 µM
- TGI (U251 CNS): > 100 µM
- TGI (HOP-62 NSCLC): > 100 µM
- TGI (OVCAR-8 ovarian): > 100 µM
- TGI (M14 melanoma): > 100 µM
- TGI (SR leukemia): > 100 µM
- TGI (M19-MEL melanoma): > 100 µM
- TGI (HCT-116 colon): > 100 µM
- TGI (OVCAR-4 ovarian): > 100 µM
- TGI (SK-OV-3 ovarian): > 100 µM
- TGI (NCI-H226 lung): > 100 µM
- TGI (SNB-19 CNS): > 100 µM
- TGI (UO-31 renal): > 100 µM
- TGI (SF-539 CNS): > 100 µM
- TGI (A549 NSCLC): > 100 µM
- TGI (HT29 colon): > 100 µM
- TGI (NCI-H23 lung): > 100 µM
- TGI (NCI-H522 lung): > 100 µM
- TGI (SK-MEL-5 melanoma): > 100 µM
- TGI (DMS 114 small cell lung): > 100 µM
- TGI (OVCAR-3 ovarian): > 100 µM
- TGI (HL-60(TB) leukemia): 44.5 µM
- TGI (OVCAR-5 ovarian): > 100 µM
- TGI (HOP-18 NSCLC): > 100 µM
- TGI (XF 498 CNS): > 100 µM
- TGI (TK-10 renal): > 100 µM
- TGI (SF-268 CNS): > 100 µM
- TGI (SN12C renal): > 100 µM
- TGI (KM20L2 colon): > 100 µM
- TGI (SK-MEL-28 melanoma): > 100 µM
- TGI (HCT-15 colon): > 100 µM
- TGI (RPMI-8226 leukemia): 35.6 µM
- TGI (HOP-92 NSCLC): > 100 µM
- TGI (K-562 leukemia): > 100 µM
- TGI (EKVX NSCLC): > 100 µM
- TGI (ACHN renal): > 100 µM
- TGI (DLD-1 colon): > 100 µM
- TGI (IGROV1 ovarian): > 100 µM
- TGI (UACC-62 melanoma): > 100 µM
- TGI (DMS 273 small cell lung): > 100 µM
- TGI (LXFL 529 NSCLC): > 100 µM
- TGI (LOX IMVI melanoma): > 100 µM
- TGI (CAKI-1 renal): > 100 µM
- TGI (SW-620 colon): > 100 µM
